Residues, ends and D or L forms follow the SMILES beside them.
Test: Water solubility (statement)
Format: physicochemical

- water solubility: water soluble
SMILES: N[C@@H](CC(=O)O)C(=O)N[C@@H](CO)C(=O)N[C@@H](CO)C(=O)N[C@@H](CC(=O)O)C(=O)N[C@@H](CO)C(=O)N[C@@H](CO)C(=O)N[C@@H](CC(=O)O)C(=O)N[C@@H](CO)C(=O)N[C@@H](CO)C(=O)N[C@@H](CC(=O)O)C(=O)N[C@@H](CO)C(=O)N[C@@H](CO)C(=O)N[C@@H](CC(=O)O)C(=O)N[C@@H](CO)C(=O)N[C@@H](CO)C(=O)N[C@@H](CC(=O)O)C(=O)N[C@@H](CO)C(=O)N[C@@H](CO)C(=O)N[C@@H](CC(=O)O)C(=O)N[C@@H](CO)C(=O)N[C@@H](CO)C(=O)N[C@@H](CC(=O)O)C(=O)N[C@@H](CO)C(=O)N[C@@H](CO)C(=O)O [8DSS] (H-DSSDSSDSSDSSDSSDSSDSSDSS-OH; N-terminus and C-terminus assumed)
